Square brackets hold non-standard residues; d marks the D form. Ends that are not written are not given here.
Legend:
TLR4 [1] = molecular target: T1, TLR4 (Mus musculus, UniProt Q9QUK6); assay: LPS-induced TNFα in immortalised murine macrophages, ELISA; type: cell-based; parameters: endogenous in cells; immortalised murine bone-marrow-derived macrophages; details: peptide 1, 3, 6.25 and 12.5 μM, 20 ng/ml LPS, 6 h
T1 sequence (Q9QUK6 26-835): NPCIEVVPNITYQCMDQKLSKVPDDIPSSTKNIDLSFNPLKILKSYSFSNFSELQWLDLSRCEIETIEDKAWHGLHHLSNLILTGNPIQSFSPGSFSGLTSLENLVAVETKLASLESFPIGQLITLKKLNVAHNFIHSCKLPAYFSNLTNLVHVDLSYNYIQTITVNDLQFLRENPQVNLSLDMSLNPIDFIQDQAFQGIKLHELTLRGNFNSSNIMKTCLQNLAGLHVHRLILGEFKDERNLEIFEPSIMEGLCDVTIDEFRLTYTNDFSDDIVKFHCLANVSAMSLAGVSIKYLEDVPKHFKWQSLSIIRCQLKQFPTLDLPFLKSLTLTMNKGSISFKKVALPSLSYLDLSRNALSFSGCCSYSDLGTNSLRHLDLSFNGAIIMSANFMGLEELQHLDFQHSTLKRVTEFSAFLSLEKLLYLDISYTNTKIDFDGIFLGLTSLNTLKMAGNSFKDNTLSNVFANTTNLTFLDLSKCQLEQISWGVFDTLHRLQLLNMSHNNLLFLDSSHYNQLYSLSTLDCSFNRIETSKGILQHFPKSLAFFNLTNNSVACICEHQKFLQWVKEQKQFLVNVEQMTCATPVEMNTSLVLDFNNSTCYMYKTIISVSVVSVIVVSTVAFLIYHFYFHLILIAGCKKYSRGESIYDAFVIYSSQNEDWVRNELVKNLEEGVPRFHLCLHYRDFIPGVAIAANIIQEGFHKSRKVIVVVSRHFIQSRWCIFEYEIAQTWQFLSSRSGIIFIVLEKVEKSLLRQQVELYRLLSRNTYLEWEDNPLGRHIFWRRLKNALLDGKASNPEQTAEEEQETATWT
T1 sequence (Q9JHF9 19-160 partner): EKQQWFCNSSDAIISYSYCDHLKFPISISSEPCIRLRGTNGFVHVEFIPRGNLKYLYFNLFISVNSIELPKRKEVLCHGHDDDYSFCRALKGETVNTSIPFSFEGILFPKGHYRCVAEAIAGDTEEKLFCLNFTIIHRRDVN

TLR4 [2] = molecular target: T1, TLR4; assay: as above; type: cell-based; parameters: endogenous in cells; immortalised murine bone-marrow-derived macrophages; details: 6 h; for inhibition of LPS-induced mTNFα production: peptide 1, 5 or 25 μM 1 h before 10 ng/ml LPS
Method: (§1) FIGS. 14A and B are bar charts showing the comparison of the inhibitory effect of the L- and D-forms of A464 on LPS-induced TNFα in primary human and murine cells. PBMC (1×10^6 cells/ml, (A)) or immortalised murine macrophages (1.5×10^5 cells/ml, (B)) were seeded in 96 well plates 24 hours before treatment. L-form and D-form A464 peptides (with the 9R delivery peptide on the C-terminus, SEQ ID NO. 20) were added to the cells at a concentration of 1, 5 or 25 μM 1 hour before stimulating with 10 ng/ml LPS. Supernatants were collected 6 hours after stimulation and assayed for either human (A) or murine (B) TNFα production by ELISA. No peptides were added to the control wells (black bars). Data is representative of at least three experiments each performed in triplicate and is expressed as mean±s.d;
(§2) FIGS. 15A and B are bar charts showing the effect of the D-form A464 peptide with the TAT delivery sequence on LPS induced TNFα in primary human and murine cells. PBMC (A) and immortalised murine macrophages (B) were seeded in 96 well plates 24 hours before treatment. D-form of A467 (SEQ ID NO. 37) and A464 (SEQ ID NO. 36) with the TAT delivery sequence were added to the cells at a concentration of 1, 5 or 25 μM 1 hour before stimulating with 10 ng/ml LPS. The peptides were added into the unstimulated control wells at 25 μM. Supernatants were collected 6 hours after stimulation and assayed for either human (A) or murine (B) TNFα production by ELISA. No peptides were added to the control wells (black bars). Data is representative of at least three experiments each performed in triplicate and is expressed as mean±s.d;
(§3) FIGS. 16A and B are bar charts showing the effect of attaching 9R to the N-terminus of A464 on LPS-induced TNFα in primary human and murine cells. Immortalised murine macrophages (A) and PBMC (B) were seeded in 96 well plates 24 hours before treatment. L-form of A467 (SEQ ID NO. 39) and A464 (SEQ ID NO. 38) with the 9R-delivery sequence at the N-terminus were added to the cells at a concentration of 1, 5 or 25 μM 1 hour before stimulating with 10 ng/ml LPS. The peptides were added into the unstimulated control wells at […]. Supernatants were collected 6 hours after stimulation and assayed for either murine (A) or human (B) TNFα production by ELISA. No peptides were added to the control wells (black bars). Data is representative of at least three experiments each performed in triplicate and is expressed as mean±s.d;
(§4) FIGS. 17A and B are bar charts showing the effect of the D-form A464 with 9R at the N-terminus on LPS-induced TNFα in primary human and murine cells. Immortalised murine macrophages (A) and PBMC (B) were seeded in 96 well plates 24 hours before treatment. D-form of A467 (SEQ ID NO. 39) and A464 (SEQ ID NO. 38) peptides with the 9R-delivery sequence at N-terminus were added to the cells at a concentration of 1, 5 or 25 μM 1 hour before stimulating with 10 ng/ml LPS. The peptides were added into the unstimulated control wells at 25 μM. Supernatants were collected 6 hours after stimulation and assayed for either murine (A) or human (B) TNFα production by ELISA. No peptides were added to the control wells (black bars). Data is representative of at least three experiments each performed in triplicate and is expressed as mean±s.d;
FIGS. 18A and B are bar charts showing the effect of shortened A464 peptides with deletions of N- and C-terminal amino acids on LPS-induced TNFα in murine macrophages. Immortalised murine macrophages were seeded in 96 well plates (1.5×10^5 cells/ml) 24 hours before treatment. A464 peptides with a deletion of one (N-1) (SEQ ID NO. 40) or two (N-2) (SEQ ID NO. 41) amino acids from the N-terminus (A), or three (C-3) (SEQ ID NO. 42) or six (C-6) (SEQ ID NO. 43) amino acids from the C-terminus (B), were added to the cells at a concentration of 1, 5 or 25 μM 1 hour before stimulating with 10 ng/ml LPS. Peptides were added to the control wells at 25 μM. […]

TLR4 [3] = assay: LPS-induced TNFα in primary human PBMC, ELISA; type: cell-based; details: 6 h; for inhibition of LPS-induced hTNFα production: peptide 1, 5 or 25 μM 1 h before 10 ng/ml LPS; for inhibitory potential compared to parental A464 (alanine scan): peptide 5 μM, 10 ng/ml LPS
Method: FIGS. 13A and B are bar charts showing the effect of A467 and A464 on LPS-induced TNFα production and on cell viability in primary human cells. Peripheral blood mononuclear cells (PBMCs) were seeded in 96 well plates (1 ×10^6 cells/ml) 24 hours before treatment. A467 (SEQ ID NO. 23) and A464 (SEQ ID NO. 20) were added to the cells at 1, 5 and 25 μM 1 hour before stimulating with 10 ng/ml LPS. The peptides were added into the unstimulated control wells at 25 μM. Supernatants were collected 6 hours after stimulation and assayed for TNFα production by ELISA (A). The cells were assayed for viability by the MTT assay (B). No peptides were added to the control wells (black bars). Data is representative of at least three experiments each performed in triplicate and is expressed as mean±s.d;
as §1, §2, §3
as §4, with “Data is representative of at least three experiments each performed in triplicate and is expressed as mean±s.d;” left out

cell viability = assay: MTT cell viability assay, more detailed investigation of screening hits; type: cell-based; details: cell type not stated
Method: Cell viability was measured by assessing mitochondrial function using an MTT (3-(4,5-Dimethylthiazol-2-yl)-2,5-diphenyltetrazolium bromide) assay. Cells were seeded into 96 well plates and treated with peptides and agonists as described above in relation to the Figs. Wells containing medium only served as a blank control. To terminate treatment of cells, medium was removed and the cells were washed once with PBS. 200 μl per well of 1 mg/ml MTT in PBS was added directly to the cells and the plates were incubated at 37° C. for 14-16 hrs in the dark. MTT was then removed and 200 μl per well of dimethyl sulphoxide (DMSO) was added and cells incubated for 20 min at 37° C. in the dark, prior to absorbance being read at 595 nm on a spectrophotometer.

TLR4 [4] = molecular target: T1, TLR4; assay: LPS-induced TNFα in RAW264.7 cells, ELISA; type: cell-based, murine; parameters: endogenous in cells; host or cells: RAW264.7; immortalised murine bone-marrow-derived macrophages; details: peptide 5 or 25 μM 1 h before 10 ng/ml LPS, 6 h, A464 5 μM as positive control
Method: FIGS. 5A and B are bar charts showing the dose-dependent inhibitory effect of A464R on LPS-induced TNFα in murine RAW264.7 cells. A464 (SEQ ID NO. 20) was added to the cells at a concentration of 5, 20 or 50 μM 1 hour before stimulating with 100 ng/ml LPS. Supernatant was collected 24 hours after stimulation and assayed for TNFα by ELISA (A) and cells were assayed for viability by the MTT assay (B.). No peptides were added to the control wells (black bars). Data is representative of at least three experiments each performed in triplicate and is expressed as mean±s.d;
FIGS. 6A and B are bar charts showing the effect of peptides derived from A46 on LPS-induced TNFα in murine RAW264.7 cells. A46 peptides were added to the cells at a concentration of 1 or 5 μM 1 hour before stimulating with 10 ng/ml LPS. Supernatants were collected 6 hours after stimulation and assayed for TNFα by ELISA. No peptides were added into the control wells (black bars). (A) peptides A461-A467 (SEQ ID NO. 17 to 23). (B) peptides A468-A4614 (SEQ ID NO. 24 to 30) (excluding A4610 SEQ ID NO. 26 and A4612 SEQ ID NO. 28). Data is representative of at least two experiments each performed in triplicate and is expressed as mean±s.d;
FIGS. 22 A and B are bar charts showing the effect of short A467 and A464 peptides, with 9R on either N- or C-terminus, on LPS- induced TNFα production in murine RAW264.7 cells. Cells were seeded in 96 well plates (1.5×10^5 cells/ml) 24 hours before treatment. Short A467 and short A464 peptides with the 9R delivery sequence on either the C-terminus (sA464C9R) (SEQ ID NO. 56) (A) or the N-terminus (sA464N9R) (SEQ ID NO. 57) (B) were added to the cells at a concentration of 5 or 25 μM 1 hour before stimulating with 10 ng/ml LPS. Normal full length A467 (SEQ ID NO. 23) and A464 (SEQ ID NO. 20) peptides were added at a concentration of 5 μM as positive controls. Supernatants were collected 6 hours after stimulation with the agonist and assayed for TNFα, by ELISA. No peptides were added to the control wells (black bars). Data is representative of at least three experiments each performed in triplicate and is expressed as mean±s.d;
Cytokine and chemokine production from cells or mouse serum was measured by ELISA using Duoset kits from R&D systems, according to the manufacturer's instructions.

Substance: 9R-FKLI (RRRRRRRRRFKLI) [Peptide 9R-FKLI]
- inhibition of TLR4-induced murine TNFα by shorter versions of sA464N9R (TLR4 [1]): did not

Substance: D-A464-TAT ([dK][dY][dS][dF][dK][dL][dI][dL][dA][dE][dY][dY]G[dR][dK][dK][dR][dR][dQ][dR][dR][dR])
- inhibition of LPS-induced mTNFα production (TLR4 [2]): still inhibited, but only at 5-25 μM
- inhibition of LPS-induced hTNFα production (TLR4 [3]): failed to inhibit LPS-induced hTNFα production at 1-25 μM

Substance: DFVNFVKDMICRRRRRRRRR [Peptide A4610]
- cell viability (MTT assay) (cell viability): reduced cell viability

Substance: DSGLFDFVNFVRRRRRRRRR [Peptide A469]
- cell viability (MTT assay) (cell viability): reduced cell viability

Substance: KYSAKLILAEY-9R (KYSAKLILAEYRRRRRRRRR) [Peptide F4A]
- inhibitory potential compared to parental A464 (alanine scan) (TLR4 [3]): reduced inhibitory potential

Substance: KYSFALILAEY-9R (KYSFALILAEYRRRRRRRRR) [Peptide K5A]
- inhibitory potential compared to parental A464 (alanine scan) (TLR4 [3]): reduced inhibitory potential

Substance: KYSFK-9R [Peptide A464C-6]
- inhibition of LPS-induced mTNFα production (TLR4 [2]): lost its ability to inhibit LPS-induced TNFα production

Substance: KYSFKAILAEY-9R (KYSFKAILAEYRRRRRRRRR) [Peptide L6A]
- inhibition compared to A464 (alanine scan) (TLR4 [2]; peptide 5 μM, 10 ng/ml LPS): reduced inhibition
- inhibitory potential compared to parental A464 (alanine scan) (TLR4 [3]): reduced inhibitory potential

Substance: KYSFKLALAEY-9R (KYSFKLALAEYRRRRRRRRR) [Peptide I7A]
- inhibitory potential compared to parental A464 (alanine scan) (TLR4 [3]): reduced inhibitory potential

Substance: KYSFKLILAEYRRRRRRRRR [D-A464]
- inhibition of LPS-induced mTNFα production (TLR4 [2]): complete inhibition at 1
- inhibition of LPS-induced hTNFα production (TLR4 [3]): only blocked TNFα secretion at 25 μM

Substance: TYLYNKYSFKLRRRRRRRRR [Peptide A463]
- cell viability (MTT assay) (cell viability): reduced cell viability

Substance: sA464C9R (SFKLILRRRRRRRRR)
- inhibition of LPS-induced TNFα by short peptides (TLR4 [4]): only when the delivery sequence was at the N-terminus

Substance: sA464N9R (RRRRRRRRRSFKLIL)
- inhibition of LPS-induced TNFα by short peptides (TLR4 [4]): inhibited LPS-induced TNFα production as potently as A464 (SEQ ID No. 20) at 5 μM

From patent US8722052B2, “Vaccinia virus protein A46 peptide and use thereof” (priority 2008, dated 2014)
